Results reported in patent publication US20040234463A1, “Antimicrobial solution for both tropical and oral use” (Innovative Healthcare Products, Inc., priority 2002, published 2004).

Columns and labels:
Assay in all cases: Titration of zones of inhibition of growth
Type in all cases: cell-based
Design in all cases: key: NI: No inhibition detected
Candida albicans = tested on: Candida albicans
Experimental: (§1) The present invention was tested against a commercially available denture cleanser and a 3% solution of H2O2 to test its effectiveness to inhibit growth of ten various target microorganisms commonly found in the human mouth. Included among the microorganisms were candida albicans, staphylococcus aureus, streptococcus sanguia, and fusobacterium nucleatum. Three samples of each microorganism were prepared for introduction of one of the various treatments—either, the present invention, a commercially-available denture cleanser, or a 3% solution of H2O2. The table blow partailly summarizes the results in terms of the titration of zones (in millimeters) of inhibition of growth.

Fusobacterium nucleatum = tested on: Fusobacterium nucleatum
Experimental: as §1

Staphylococcus aureus = tested on: Staphylococcus aureus
Experimental: as §1

Streptococcus sanguia = tested on: Streptococcus sanguia
Experimental: as §1

OO [H2O2]
zone of inhibition of growth (Candida albicans; dilution 1/16): NI | zone of inhibition of growth (Candida albicans; dilution 1/32): NI | zone of inhibition of growth (Candida albicans; dilution 1/64): NI | zone of inhibition of growth (Candida albicans; dilution 1/128): NI | zone of inhibition of growth (Candida albicans; dilution St.): 5.5 millimeters | zone of inhibition of growth (Candida albicans; dilution ¼): NI | zone of inhibition of growth (Candida albicans; dilution ½): 5.0 millimeters | zone of inhibition of growth (Candida albicans; dilution ⅛): NI | zone of inhibition of growth (Fusobacterium nucleatum; dilution 1/16): NI | zone of inhibition of growth (Fusobacterium nucleatum; dilution 1/32): NI | zone of inhibition of growth (Fusobacterium nucleatum; dilution 1/64): NI | zone of inhibition of growth (Fusobacterium nucleatum; dilution 1/128): NI | zone of inhibition of growth (Fusobacterium nucleatum; dilution St.): 17.0 millimeters | zone of inhibition of growth (Fusobacterium nucleatum; dilution ¼): 7.0 millimeters | zone of inhibition of growth (Fusobacterium nucleatum; dilution ½): 13.0 millimeters | zone of inhibition of growth (Fusobacterium nucleatum; dilution ⅛): 6.0 millimeters | zone of inhibition of growth (Staphylococcus aureus; dilution 1/16): NI | zone of inhibition of growth (Staphylococcus aureus; dilution 1/32): NI | zone of inhibition of growth (Staphylococcus aureus; dilution 1/64): NI | zone of inhibition of growth (Staphylococcus aureus; dilution 1/128): NI | zone of inhibition of growth (Staphylococcus aureus; dilution St.): 10.0 millimeters | zone of inhibition of growth (Staphylococcus aureus; dilution ¼): NI | zone of inhibition of growth (Staphylococcus aureus; dilution ½): 5.0 millimeters | zone of inhibition of growth (Staphylococcus aureus; dilution ⅛): NI | zone of inhibition of growth (Streptococcus sanguia; dilution 1/16): NI | zone of inhibition of growth (Streptococcus sanguia; dilution 1/32): NI | zone of inhibition of growth (Streptococcus sanguia; dilution 1/64): NI | zone of inhibition of growth (Streptococcus sanguia; dilution 1/128): NI | zone of inhibition of growth (Streptococcus sanguia; dilution St.): 10.0 millimeters | zone of inhibition of growth (Streptococcus sanguia; dilution ¼): NI | zone of inhibition of growth (Streptococcus sanguia; dilution ½): 6.5 millimeters | zone of inhibition of growth (Streptococcus sanguia; dilution ⅛): NI
